Data reported in PMC2903571, “Sterol carrier protein-x gene and effects of sterol carrier protein-2 inhibitors on lipid uptake in Manduca sexta” (BMC Physiology, 2010).
Structures can show the parent of a compound that is named as a salt.

What was measured:
[1] = set-up: method as in PMID 6833881; conditions: room temperature; cited from earlier work
[2] = set-up: method as in PMID 11566796; conditions: cited from earlier work
[3] = biological target: T1, MsSCP-2 (Manduca sexta, UniProt D8VD27); experiment: NBD-cholesterol binding assay, recombinant MsSCP-2; conditions: NBD-cholesterol 1 μM, MsSCP-2 1 nM~10 μM, one site binding non-linear regression; read-out: binding affinity (Kd) of MsSCP-2 to NBD-cholesterol
T1 sequence (D8VD27 entry or part of it): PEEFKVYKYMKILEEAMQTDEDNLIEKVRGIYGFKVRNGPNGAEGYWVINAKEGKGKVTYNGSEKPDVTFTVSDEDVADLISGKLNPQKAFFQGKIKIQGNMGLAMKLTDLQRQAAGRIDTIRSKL
Protocol: (§1) MsSCP-2 binding affinity for NBD-cholesterol, an analog of cholesterol, was determined using NBD-cholesterol binding assays. A 1 ml sample of 10 μM recombinant MsSCP-2 was diluted with 10 mM KHPO4 buffer (pH 7.4) to various concentrations (1 nM~10 μM). Twenty-five microliters of each concentration of MsSCP-2 solution and the control (without MsSCP-2) were thoroughly mixed with 25 μl of NBD-cholesterol solution (1 μM in KHPO4 buffer, pH 7.4) and allowed to equilibrate for 3 minutes to permit stable measurement of the fluorescence signal. NBD-cholesterol fluorescence was excited at 470 nm, and emission was recorded at 530 nm using a fluorescence microplate reader (Model: GeminiXPS, Molecular Devices). Data were fit using a simple, single binding site, non-linear regression model in GraphPad PRISM® software version 4.0 (GraphPad Software Inc., San Diego, CA) using the equation: [drawing 1]
(§2) Where, Kd is the binding affinity, X is the NBD-cholesterol concentration (μM), Y is the total binding (fluorescent intensity unit), and Bmax is the maximum specific binding to be fit. AeSCP-2 and GST were used as a positive control and a negative control, respectively. NBD-cholesterol binding assays for the controls were performed the same as described above for recombinant MsSCP-2.

[4] = biological target: T2, AeSCP-2 (Aedes aegypti, UniProt Q86PR3); experiment: NBD-cholesterol binding assay, AeSCP-2 (positive control); conditions: NBD-cholesterol 1 μM, one site binding non-linear regression; read-out: binding affinity (Kd) of AeSCP-2 to NBD-cholesterol
T2 sequence (Q86PR3 1-110): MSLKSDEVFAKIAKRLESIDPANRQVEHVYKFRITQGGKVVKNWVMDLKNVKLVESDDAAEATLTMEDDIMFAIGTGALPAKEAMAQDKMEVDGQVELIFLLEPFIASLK
Protocol: as §1, §2

[5] = system: GST; experiment: NBD-cholesterol binding assay, GST (negative control); set-up: species or system bacterial; conditions: negative control protein
Protocol: as §1, §2

[6] = system: M. sexta Day 3 4th instar larvae; experiment: [3H]-cholesterol uptake (label/chase) in larvae fed SCPIs; assay type: in vivo, Manduca sexta; conditions: for suppression of cholesterol storage (stored [3H]-cholesterol) in the fat body: within 6 hours of treatment, versus controls; for accumulation of [3H]-cholesterol in the fat body versus controls: within 6 hours post feeding; for [3H]-cholesterol levels in the feces, higher than in the controls: within the 6 hour period; for amount of labeled cholesterol in the hemolymph: 2 to 6 hours post feeding; for hemolymph [3H]-cholesterol levels versus control: all post feeding time points; for total amount of [3H]-cholesterol in the midgut tissue versus controls: over the observed time period (2-6 h), two-way ANOVA
Protocol: (§3) Collected tissue samples were stored at -80°C.
(§4) Student t-test was used in cases where a pair of treatments was compared to determine the significance of the differences.

[7] = system: M. sexta Day 3 4th instar larvae; experiment: [3H]-palmitic acid uptake (label/chase) in larvae fed SCPIs; assay type: in vivo, Manduca sexta; conditions: midgut tissue, 2-6 h post feeding
Protocol: as §3, §4

[8] = system: Manduca sexta GV1 cells; set-up: method as in PMID 15627652; conditions: 10 μM; cited from earlier work
[9] = biological target: T1, MsSCP-2; experiment: biochemical
Protocol: (§5) The inhibitory effect of SCPI on cholesterol binding to MsSCP-2 was measured using NBD-cholesterol competition assays. In a 50 μl reaction solution in each well of a 96-well plate purified recombinant MsSCP-2 (5 μM) was incubated with NBD-cholesterol (1.25 μM) in the presence of increased concentrations of a SCPI (0-12.5 μM) in 10 mM KHPO4 buffer (pH 7.4) for 5 min. The fluorescence intensity (excitation/emission = 470/530) of NBD-cholesterol was measured. The background control was NBD-cholesterol alone in 10 mM KHPO4 buffer (pH 7.4). A separate set of tests was performed using NBD-cholesterol with increasing concentrations of a SCPI to assess whether a SCPI interfered with NBD-cholesterol fluorescence. If a SCPI interfered with NBD-cholesterol fluorescence, the background control was NBD-cholesterol along with the SCPI. The net change in NBD-cholesterol fluorescence intensity was calculated by subtracting the fluorescence of the background control from the NBD-cholesterol-MsSCP-2 complex in the absence or presence of an inhibitor. The data were plotted with the relative NBD-cholesterol fluorescent intensity (bound NBD-cholesterol) as the y-axis and the molarities of the inhibitor as the x-axis. Bacterial GST protein and Aedes aegypti SCP-2 protein (AeSCP-2) were used as a negative control and a positive control for the assays, respectively.

[10] = biological target: T2, AeSCP-2; experiment: biochemical
Protocol: as §5

[11] = system: Day 3 4th instar larvae; experiment: Dietary uptake of NBD-cholesterol in larvae fed SCPIs; conditions: mean ± S.D.
Protocol: NBD-cholesterol and the SCPI were added into the diet and fed to Day 3 4th instar larvae (12 insects (4 insects/time)/group) as described for [^3H]-cholesterol. Total lipids were extracted from tissue samples as described for [^3H]-cholesterol. Dried lipids were re-dissolved in 50 μl methanol and the NBD fluorescent was measured (470/530 nm = excitation/emission). RFU = the relative fluorescent unit (sample FU - blank FU).
**Data were analyzed using two-way ANOVA.

[12] = system: Manduca sexta larvae; set-up: method as in PMID 15627652; conditions: cited from earlier work

Structure (SMILES): CC(C)CCC[C@@H](C)[C@H]1CC[C@H]2[C@@H]3CC=C4C[C@@H](O)CC[C@]4(C)[C@H]3CC[C@]12C [Cholesterol, cholesterol]
- solubility in water [1]: ~ 10 nM
- flip-flop rate (t1/2) within the lipid bilayer [2]: 1 to 2 min

Structure (SMILES): C[C@H](CNc1ccc([N+](=O)[O-])c2nonc12)[C@H]1CC[C@H]2[C@@H]3CC=C4C[C@@H](O)CC[C@]4(C)[C@H]3CC[C@]12C [NBD-cholesterol, 22-(N-(7-nitrobenz-2-oxa-1,3-diazol-4-yl)amino)-23,24-bisnor-5-cholen-3β-ol]
- Kd [3]: 1860 nM
- Kd [4]: 820 nM
- binding of GST to NBD-cholesterol [5]: little binding

Structure (SMILES): CC(=O)Nc1ccc(Nc2nc(-c3ccc(Cl)c(Cl)c3)cs2)cc1 [SCPI-1, N-4-{[4-(3,4-dichlorophenyl)-1,3-thiazol-2-yl]amino}phenyl)aetamide hydrobromide]
- amount of [3H]-cholesterol in the midgut [6]: 555098.9 DMP/mg protein
- suppression of cholesterol storage (stored [3H]-cholesterol) in the fat body ([6]; fat body): 37%
- accumulation of [3H]-cholesterol in the fat body versus controls ([6]; fat body): significantly lower
- [3H]-cholesterol levels in the feces, higher than in the controls [6]: 265.84%
- amount of labeled cholesterol in the hemolymph ([6]; SCPI at LD50 dosage in diet): 28087.6 DPM/mg protein
- hemolymph [3H]-cholesterol levels versus control [6]: significantly lower
- total [3H]-cholesterol in the midgut tissue compared with the control group ([6]; midgut, 2 hour time point, SCPI at LD50 dosage in diet): slightly lower
- total amount of [3H]-cholesterol in the midgut tissue versus controls ([6]; midgut): significantly lower
- [3H]-palmatic acid uptake/levels in the midgut [7]: suppressed
- suppression of cholesterol uptake [8]: 15%
- EC50 [9]: 2200 nM
- EC50 [10]: 900 nM
- NBD-cholesterol, fat body, 2 hour [11]: 8.01±2.84 RFU/mg proteins
- NBD-cholesterol, fat body, 4 hour [11]: 4.18±1.06 RFU/mg proteins
- NBD-cholesterol, fat body, 6 hour [11]: 3.75±1.10 RFU/mg proteins
- NBD-cholesterol, hemolymph, 2 hour [11]: 8.62±3.62 RFU/mg proteins
- NBD-cholesterol, hemolymph, 4 hour [11]: 7.04±1.37 RFU/mg proteins
- NBD-cholesterol, hemolymph, 6 hour [11]: 5.63±1.62 RFU/mg proteins
- NBD-cholesterol, midgut, 2 hour [11]: 22.77±3.02 RFU/mg proteins
- NBD-cholesterol, midgut, 4 hour [11]: 22.61±4.57 RFU/mg proteins
- NBD-cholesterol, midgut, 6 hour [11]: 17.78±6.43 RFU/mg proteins

Structure (SMILES): COc1cccc(-n2sc3c(c2=S)-c2cc(Cl)ccc2NC3(C)C)c1 [SCPI-2, 8-chloro-2-(3-methoxyphenyl)-4,4-dimethyl-4,5-dihydroisothiazol[5,4-c]quinoline-1(2H)-thione]
- amount of [3H]-cholesterol in the midgut [6]: 367836.9 DMP/mg protein
- less stored [3H]-cholesterol in the fat body than for the SCPI-1-treatment ([6]; fat body, 6 hours post feeding): 56%
- suppression of cholesterol storage (stored [3H]-cholesterol) in the fat body ([6]; fat body): 69%
- accumulation of [3H]-cholesterol in the fat body versus controls ([6]; fat body): significantly lower
- [3H]-cholesterol levels in the feces, higher than in the controls [6]: 369.02%
- amount of labeled cholesterol in the hemolymph ([6]; SCPI at LD50 dosage in diet): 29564.4 DPM/mg protein
- hemolymph [3H]-cholesterol levels versus control [6]: significantly lower
- greater reduction in [3H]-cholesterol uptake/transport than the SCPI-1-treatment ([6]; midgut tissue): 46%
- [3H]-cholesterol in the midgut tissue, % of the controls ([6]; midgut, 2 hour post feeding, SCPI at LD50 dosage in diet): 43.18%
- total amount of [3H]-cholesterol in the midgut tissue versus controls ([6]; midgut): significantly lower
- [3H]-palmatic acid uptake/levels in the midgut [7]: suppressed
- suppression of cholesterol uptake [8]: 22%
- lethality to Manduca larvae [12]: more lethal than SCPI-1
- EC50 [9]: 900 nM
- EC50 [10]: 800 nM
- NBD-cholesterol, fat body, 2 hour [11]: 4.20±0.57 RFU/mg proteins
- NBD-cholesterol, fat body, 4 hour [11]: 7.74±3.56 RFU/mg proteins
- NBD-cholesterol, fat body, 6 hour [11]: 9.05±4.09 RFU/mg proteins
- NBD-cholesterol, hemolymph, 2 hour [11]: 4.93±1.26 RFU/mg proteins
- NBD-cholesterol, hemolymph, 4 hour [11]: 4.58±1.47 RFU/mg proteins
- NBD-cholesterol, hemolymph, 6 hour [11]: 3.89±0.98 RFU/mg proteins
- NBD-cholesterol, midgut, 2 hour [11]: 21.39±2.77 RFU/mg proteins
- NBD-cholesterol, midgut, 4 hour [11]: 21.45±3.55 RFU/mg proteins
- NBD-cholesterol, midgut, 6 hour [11]: 17.43±6.46 RFU/mg proteins
